The data set can be described thus: in vivo. Also noted: species or system SD rats. The settings on record: male, SD, rat, plasma, po, 1 mg/kg; read-out: Bioavailability F.

SMILES strings stand for the structures.

For `C[C@H](NC1=CC(=O)C2(CCCC2)C(=O)N1)c1cc(F)ccc1F` [Compound of formula (I)], the bioavailability is 123%.

(Values after patent US20250154108A1 (priority 2022, published 2025).)
